From PMC7376644 (Pharmacology Research & Perspectives, 2020)
Where “and” joins values, the source holds several entries; their conditions need not be identical. Equal entries are not always repeated. Where two headings read alike, the source gives them in different places.

Experiments:
[1] = Intrinsic clearance, substrate depletion approach; assay type: in vitro ADME, human; details: human, human liver microsomes, pH 7.4; HLM, 1 µmol/L substrate
Method: (§1) The generic conditions were previously described by Masimirembwa and co‐workers. ^24 , ^25 Each reaction mixture consisted of substrate incubated with appropriate enzyme, substrate, and NADPH in potassium phosphate buffer pH 7.4 in a final volume of 200 µL. The substrate was diluted to 40% ACN so that the percent organic component in the final solution was maintained at 1%. The reactions were quenched with 3 volumes of stop solution containing ACN and 0.8% formic acid at 0, 5, 10, 20, 30, 40, and 60 minutes. This was followed by centrifugation at 4500 g for 20 minutes. An aliquot (50 µL) supernatant was collected and diluted (1:1) in water prior to LC‐MS/MS analysis.
(§2) Each reaction was monitored over 7 time points.
(§3) The well‐stirred model was used to estimate the hepatic clearance (CLH) due to metabolism.

HLM = assay: Intrinsic clearance, substrate depletion approach; assay type: in vitro ADME, human; details: substrate depletion
Method: as §1, §2, §3

CYP1A2 = assay: CYP selective diagnostic inhibition studies in HLM, furafylline; assay type: in vitro ADME, human; details: furafylline 10 µmol/L
Method: (§4) Reactions were carried out in triplicate in 96 well plates. Each reaction was measured at 2 time points, that is at 0 and 30 minutes. […] Furafylline, KTZ, ticlopidine, and quinidine were used as diagnostic inhibitors for CYP 1A2, 3A4/5, 2C19 and 2D6, respectively. The reactions were initiated by addition of NADPH after a pre‐incubation of 5 minutes at 37°C. All reactions were terminated by the addition of 150 µL ice‐cold ACN. Internal standard (0.2 µmol/L DPZ) was added to ACN prior to termination of the assay. This was followed by centrifugation at 4500 g for 20 minutes. An aliquot (50 µL) supernatant was collected and 5 µL was injected and analyzed by liquid chromatography/tandem mass spectrometry (LC/MS/MS). The percent effect of each inhibitor was the estimated contribution of the inhibited CYP calculated using the relationship below: %contribution=amount remaining with inhibitor‐amount remaining without inhibitor/amount remaining without inhibitor×100.

[2] = Simcyp prediction of total hepatic clearance; parameters: species or system human
Method: The clearance of the incubation mixture was expressed as μL/min/pmol for rCYP.
as §3

[3] = PZQ-ketoconazole DDI pharmacokinetic study in healthy volunteers; assay type: in vivo, human; details: for AUC(0-inf) / AUC / CL/F / k el / half-life / Tmax / Vd/F: male, human, plasma
Method: Plasma samples were obtained from the AiBST biobank. […] Each participant served as their own control. Each participant provided written informed consent to take part in the study and the study was carried out according to Helsinki Declaration of 1975, as revised in 2008. The study was approved by the Medical Research Council of Zimbabwe (MRCZ) and the Medicines Controls Authority of Zimbabwe (MCAZ). […] The samples were vortexed for 30 seconds and left under gentle agitation for 25 minutes. […] From the supernatant, 20 μL was injected onto the chiral HPLC system for analysis. […] Detection was done using a UV diode array detector at 210 nm. […] The data were gathered and processed using Agilent OpenLab CDS for Chemstation software version 1.9. Linear calibration curves were plotted as concentration vs peak area ratio for analyte to IS with no weighting. […] The pharmacokinetic (PK) analysis was performed using the WinNonlin program, version 8.2 (Pharsight Corp). […] A non-compartmental approach was used for curve plotting and parameter calculation. The area under the curve (AUC) from time 0 to the last sampling time point (AUCt) was computed using the log-linear trapezoidal rule. The linear trapezoidal rule was used for the ascending part of the PK curve, while the log trapezoidal rule was used for the descending part of the graph. The AUC extrapolated to infinite time was calculated as AUC∞ = AUCt + Ct/K el where Ct is the concentration of the last sample taken and K el is the terminal elimination rate constant. The terminal elimination rate constant K el was determined by least squares regression analysis in the terminal phase of the semi log concentration-time curve. […] Statistical analysis was performed using the GraFit software (version 3.0, Erithacus Software Limited). […] Analysis of variance (ANOVA) was performed on the AUC and C max after transformation of the data to their natural logarithmic (ln) values.

CYP2D6 = CYP2D6 (Homo sapiens, UniProt P10635); assay: in vitro; details: recombinant CYP2D6, pH 7.4
CYP2D6, sequence (P10635 whole entry): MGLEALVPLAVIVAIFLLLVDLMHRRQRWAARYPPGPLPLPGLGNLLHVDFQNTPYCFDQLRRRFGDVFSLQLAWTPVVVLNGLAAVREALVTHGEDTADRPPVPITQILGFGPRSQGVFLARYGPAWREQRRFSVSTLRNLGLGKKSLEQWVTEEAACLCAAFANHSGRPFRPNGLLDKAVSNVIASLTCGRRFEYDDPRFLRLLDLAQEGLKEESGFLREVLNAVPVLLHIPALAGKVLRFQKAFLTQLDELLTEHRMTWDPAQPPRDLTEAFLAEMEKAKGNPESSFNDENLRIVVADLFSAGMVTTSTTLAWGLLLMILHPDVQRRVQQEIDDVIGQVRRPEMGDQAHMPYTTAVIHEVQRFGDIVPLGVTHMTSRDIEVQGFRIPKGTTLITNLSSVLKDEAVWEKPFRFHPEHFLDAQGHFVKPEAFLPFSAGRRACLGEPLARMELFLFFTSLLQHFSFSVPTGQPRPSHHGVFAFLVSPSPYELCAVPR

CYP3A4/5 = assay: CYP selective diagnostic inhibition studies in HLM, ketoconazole; assay type: in vitro ADME, human; details: ketoconazole 10 µmol/L
Method: as §4

[4] = PZQ + ketoconazole vs PZQ alone
[5] = single oral 20 mg/kg PZQ alone, n = 9, listed as R‐Praziquantel, 20 mg/kg

SMILES: O=C(C1CCCCC1)N1CC(=O)N2CCc3ccccc3[C@@H]2C1 [R‐PZQ, R‐Praziquantel]
- half-life at 1 µmol/L [1]: 0.191 h
- Predicted CLuH,int (HLM; HLM): 172.0 mL/min/kg
- Predicted CLH (HLM; HLM, well‐stirred model): 13.06 mL/min/kg
- Clearance class, HLM‐mediated (HLM): high
- Contribution of CYP1A2 (CYP1A2): 61%
- Predicted total CLH (Simcyp) ([2]; metabolite formation assay): 9.777 mL/min/kg
- Predicted total CLH (Simcyp) ([2]; substrate depletion assay): 6.923 mL/min/kg
- Clearance/F, treatment mean (SD) ([3]; 20 mg/kg PZQ plus 200 mg ketoconazole, n = 9): 1146 (992.1) L/h
- Decrease of mean C max with KTZ ([3]; PZQ + KTZ vs PZQ alone): 11.85%
- AUCinf, difference observed % [3, 4]: 9% and 9.26%
- AUCt0‐tlast, difference observed % [3, 4]: −14.68%
- C max, difference observed % [3, 4]: −11.85%
- Clearance/F, difference observed % [3, 4]: 26.99%
- Elimination rate constant, difference observed % [3, 4]: −4.350%
- Half life, difference observed % [3, 4]: 79.64%
- T max, difference observed % [3, 4]: −46.33%
- V d/F, difference observed % [3, 4]: 74.87%
- AUCinf, difference observed % ([3]; PZQ + ketoconazole vs PZQ alone, listed as R‐Praziquantel): 9.290%
- AUC(0-inf) ([3]; oral, 20 mg/kg, 20 mg/kg PZQ plus 200 mg ketoconazole, n = 9, read-out: AUCinf, treatment geo mean): 1290 ng·h/mL
- AUC(0-inf) ([3]; oral, 20 mg/kg, 20 mg/kg PZQ plus 200 mg ketoconazole, n = 9, read-out: AUCinf, treatment mean (SD)): 1470 ng·h/mL
- AUC ([3]; oral, 20 mg/kg, 20 mg/kg PZQ plus 200 mg ketoconazole, n = 9, read-out: AUCt0‐tlast, treatment geo mean): 945 ng·h/mL
- CL/F ([3]; oral, 20 mg/kg, 20 mg/kg PZQ plus 200 mg ketoconazole, n = 9, read-out: Clearance/F, treatment geo mean (converted)): 15300 mL/min
- CL/F ([3]; oral, 20 mg/kg, 20 mg/kg PZQ plus 200 mg ketoconazole, n = 9, read-out: Clearance/F, treatment mean (SD) (converted)): 19100 mL/min
- k el ([3]; oral, 20 mg/kg, 20 mg/kg PZQ plus 200 mg ketoconazole, n = 9, read-out: Elimination rate constant, treatment geo mean (converted)): 4.44e-05 s⁻¹
- k el ([3]; oral, 20 mg/kg, 20 mg/kg PZQ plus 200 mg ketoconazole, n = 9, read-out: Elimination rate constant, treatment mean (SD) (converted)): 6.11e-05 s⁻¹
- half-life ([3]; oral, 20 mg/kg, 20 mg/kg PZQ plus 200 mg ketoconazole, n = 9, read-out: Half life, treatment geo mean (converted)): 4.14 h
- half-life ([3]; oral, 20 mg/kg, 20 mg/kg PZQ plus 200 mg ketoconazole, n = 9, read-out: Half life, treatment mean (SD) (converted)): 6 h
- Tmax ([3]; oral, 20 mg/kg, 20 mg/kg PZQ plus 200 mg ketoconazole, n = 9, read-out: T max, treatment geo mean): 1.53 h
- Tmax ([3]; oral, 20 mg/kg, 20 mg/kg PZQ plus 200 mg ketoconazole, n = 9, read-out: T max, treatment mean (SD)): 1.61 h
- Vd/F ([3]; oral, 20 mg/kg, 20 mg/kg PZQ plus 200 mg ketoconazole, n = 9, read-out: V d/F, treatment geo mean): 5480 L
- Vd/F ([3]; oral, 20 mg/kg, 20 mg/kg PZQ plus 200 mg ketoconazole, n = 9, read-out: V d/F, treatment mean (SD)): 7880 L
- AUC ([3]; oral, 20 mg/kg, AUC, PZQ alone): 1350 ± 1470 ng·h/mL
- AUC ([3]; oral, 20 mg/kg, read-out: AUC from the in vivo pharmacokinetic study): 2400 ng·h/mL
- AUC ([3]; oral, AUC, PZQ + KTZ): 1470 ± 767 ng·h/mL
- AUC(0-inf) ([3]; po, 20 mg/kg, single oral 20 mg/kg PZQ alone, n = 9, read-out: AUCinf, reference geo mean): 1300 ng·h/mL
- AUC(0-inf) ([3]; po, 20 mg/kg, single oral 20 mg/kg PZQ alone, n = 9, read-out: AUCinf, reference mean (SD)): 1340 ng·h/mL
- AUC ([3]; po, 20 mg/kg, single oral 20 mg/kg PZQ alone, n = 9, read-out: AUCt0‐tlast, reference geo mean): 1120 ng·h/mL
- AUC ([3]; po, 20 mg/kg, single oral 20 mg/kg PZQ alone, n = 9, read-out: AUCt0‐tlast, reference mean (SD)): 1240 ng·h/mL
- CL/F ([3]; po, 20 mg/kg, single oral 20 mg/kg PZQ alone, n = 9, read-out: Clearance/F, reference geo mean (converted)): 14600 mL/min
- CL/F ([3]; po, 20 mg/kg, single oral 20 mg/kg PZQ alone, n = 9, read-out: Clearance/F, reference mean (SD) (converted)): 15000 mL/min
- k el ([3]; po, 20 mg/kg, single oral 20 mg/kg PZQ alone, n = 9, read-out: Elimination rate constant, reference geo mean (converted)): 6.11e-05 s⁻¹
- k el ([3]; po, 20 mg/kg, single oral 20 mg/kg PZQ alone, n = 9, read-out: Elimination rate constant, reference mean (SD) (converted)): 6.39e-05 s⁻¹
- half-life ([3]; po, 20 mg/kg, single oral 20 mg/kg PZQ alone, n = 9, read-out: Half life, reference geo mean (converted)): 3.21 h
- half-life ([3]; po, 20 mg/kg, single oral 20 mg/kg PZQ alone, n = 9, read-out: Half life, reference mean (SD) (converted)): 3.34 h
- Tmax ([3]; po, 20 mg/kg, single oral 20 mg/kg PZQ alone, n = 9, read-out: T max, reference geo mean): 2.59 h
- Tmax ([3]; po, 20 mg/kg, single oral 20 mg/kg PZQ alone, n = 9, read-out: T max, reference mean (SD)): 3 h
- Vd/F ([3]; po, 20 mg/kg, single oral 20 mg/kg PZQ alone, n = 9, read-out: V d/F, reference geo mean): 4050 L
- Vd/F ([3]; po, 20 mg/kg, single oral 20 mg/kg PZQ alone, n = 9, read-out: V d/F, reference mean (SD)): 4510 L
- Clearance/F, reference mean (SD) ([3]; single oral 20 mg/kg PZQ alone, n = 9, 20 mg/kg): 902.09 ± 264 L/h
- C max, reference mean (SD) [3, 5]: 313.1 (131.1) ng/mL
- Clearance/F, reference mean (SD) [3, 5]: 902.1 (264.9) L/h
- half-life at 1 µmol/L (CYP2D6): 0.578 h
- Contribution of CYP3A4/5 (CYP3A4/5): 33%
